Results taken from patent US5141929A, “Lipophilic ethers and/or esters of D-desosamine and their compositions as anti-bacteria and anti-fungus agents” (Societe Anonyme dite: L'Oreal, priority 1988, dated 1992).
≈ marks a conversion by molar mass, not a printed value. Where two headings read alike, the source gives them in different places.

Assays:
P37 E⊕ (sensitive) = assay: MIC by dilution method, erythromycin-sensitive P. acnes strain P37 E⊕; assay type: cell-based, propionibacterium acnes; details: for MIC: Cutibacterium acnes
Excerpt: (§1) The activity of the esters and/or ethers of D-desosamine has been studied by the dilution method to determine the minimum inhibiting concentration (MIC) This method is described and employed by G.A. Denys et al, Antimicrobial Agents and Chemotherapy (1983) 23, 335-337 and J.J. Leyden et al, J. Am. Acad. Dermatol. (1983) 8 (1) 41-5, by using as the procionibacterium acnes strain, strain P37 furnished by Cunliffe and Holland.
(§2) On the other hand, after 8 successive sub-cultures in the same medium (RCM* 19/20, DMSO […] by volume) with the view of obtaining a progressive stabilization of this strain in this medium, a progressive resistance to erythromycin was manifested in the following form:
(§3) after spreading a standardized inoculum (DO=1.8 at 450 nm) on a gelose medium (RCM+furazolidone), in a Petri dish, a 9 mm diameter disc is deposited at its center. On the disc, 50 μg of erythromycin (in solution in DMSO) are deposited.
(§4) After 6 days at 36° C. in an anerobic medium (GAS-PAK, B.B.L. system) an inhibition zone of the growth of the strain is clearly visible (total diameter=42 mm), the majority of the colonies being situated at the periphery of the inhibition zone.
(§5) The two types of colonies are then retained by stripping of the gelose medium (sterilized platinum loop):
(§6) (2) at 1 cm beyond the periphery of the inhibition zone, there are stripped off strains called P37 E⊕.
(§7) After isolation and culturing, the P37 E⊕ and P37 E⊖ strains effectively show very different sensitivities to erythromycin as illustrated by the following respective MIC values.
(§8) The minimum inhibiting concentration (MIC), expressed in μg/ml of the esters and/or ethers of D-desosamine tested vis-a-vis strains of propionibacterium Acnes P37, P37E⊕ and P37E⊖ and staphilococcus epidermidis ATCC 12228, is reported in the following Table I.

[1] = tested on: staphilococcus epidermidis ATCC 12228; assay: MIC by dilution method, staphilococcus epidermidis ATCC 12228; assay type: cell-based; details: Table I; for MIC: read-out: minimum inhibiting concentration (MIC), ATCC 12228
Excerpt: as §1, §8

P37 E⊖ (resistant) = assay: MIC by dilution method, erythromycin-resistant P. acnes strain P37 E⊖; assay type: cell-based, propionibacterium acnes; details: for MIC: Cutibacterium acnes
Excerpt: as §1, §2, §3, §4, §5
(§9) (1) at the interior of the inhibition zone there are stripped off strains, called P37 E⊖ by reason of their apparent resistance to erythromycin.
as §7, §8

[2] = tested on: propionibacterium Acnes P37; assay: MIC by dilution method, Propionibacterium acnes strain P37; assay type: cell-based; details: for MIC: Cutibacterium acnes
Excerpt: as §1
This P37 strain has been the object of studies described in the following publications:
as §8

P37 [3] = assay: Disc diffusion inhibition zone on gelose medium, sub-cultured strain P37; assay type: cell-based, propionibacterium acnes; details: Cutibacterium acnes, 144 h, read-out: inhibition zone of the growth of the strain, total diameter
Experimental: as §2, §3, §4

P37 [4] = assay: IC 50 (50% survivors at constant culturing time), strain P37; assay type: cell-based, propionibacterium acnes; details: Cutibacterium acnes, read-out: IC 50 (inhibiting concentration at 50%), P37
Excerpt: (§10) This phenomenon is confirmed by the study of the IC 50 (inhibiting concentration at 50%) which represents the concentration of erythromycin where, at a constant culturing time, 50% survivors among the population are found.

P37 E⊕ = assay: IC 50 (50% survivors at constant culturing time), strain P37 E⊕; assay type: cell-based, propionibacterium acnes; details: Cutibacterium acnes, read-out: IC 50 (inhibiting concentration at 50%), P37 E⊕
Excerpt: as §6, §10

P37 E⊖ = assay: IC 50 (50% survivors at constant culturing time), strain P37 E⊖; assay type: cell-based, propionibacterium acnes; details: Cutibacterium acnes, read-out: IC 50 (inhibiting concentration at 50%), P37 E⊖
Excerpt: as §9, §10

[5] = Table I, erythromycin-sensitive, read-out: minimum inhibiting concentration (MIC), P37 E⊕ (sensitive)
[6] = read-out: minimum inhibiting concentration (MIC), P37 E⊖ (resistant)
[7] = ACNESP37, Table I, P. acnes P37, read-out: minimum inhibiting concentration (MIC), P37

Row | Molecule | MIC (P37 E⊕ (sensitive); [5]) | MIC [1] | MIC (P37 E⊖ (resistant); [6]) | MIC [2, 7] | also measured
1 | CCCCCCCCCC(=O)O[C@H]1C(OCCCC)O[C@H](C)C[C@@H]1N(C)C (stereo partly drawn) [Compound 1, O-decanoyl-2-O-butyl-1-α,β-D-desosamine] | 9 µg/mL (≈ 23.3 µM) | 5 µg/mL (≈ 13 µM) | 3.2 µg/mL (≈ 8.3 µM) | 9 µg/mL (≈ 23.3 µM) | 
2 | CCCCCCCCCCCC(=O)O[C@H]1C(OCCCC)O[C@H](C)C[C@@H]1N(C)C (stereo partly drawn) [Compound 2, O-dodecanoyl-2-O-butyl-1-α,β-D-desosamine] | 0.6 µg/mL (≈ 1.45 µM) | 3.5 µg/mL (≈ 8.46 µM) | 0.9 µg/mL (≈ 2.18 µM) | 0.4 µg/mL (≈ 0.967 µM) | 
3 | CCCCCCCCCCCC(=O)O[C@H]1[C@H](OCCCC)O[C@H](C)C[C@@H]1N(C)C [Compound 3, O-dodecanoyl-2-O-butyl-1-β-D-desosamine] | 0.1 µg/mL (≈ 0.242 µM) |  | 1.9 µg/mL (≈ 4.59 µM) | 15 µg/mL (≈ 36.3 µM) | 
4 | CCCCCCCCCCCC(=O)O[C@H]1C(OC)O[C@H](C)C[C@@H]1N(C)C (stereo partly drawn) [Compound 4, O-dodecanoyl-2-O-methyl-1-α,β-D-desosamine] | 15 µg/mL (≈ 40.4 µM) | 3.8 µg/mL (≈ 10.2 µM) |  | 25 µg/mL (≈ 67.3 µM) | 
5 | CCCCCCCCCCCC(=O)O[C@H]1[C@@H](OC)O[C@H](C)C[C@@H]1N(C)C [Compound 5, O-dodecanoyl-2-O-methyl-1-α-D-desosamine] | 50 µg/mL (≈ 135 µM) | 3.2 µg/mL (≈ 8.61 µM) |  | 50 µg/mL (≈ 135 µM) | 
6 | CCCCC/C=C\C/C=C\CCCCCCCC(=O)O[C@H]1C(OCCCC)O[C@H](C)C[C@@H]1N(C)C (stereo partly drawn) [Compound 6, O-linoleoyl-2-O-butyl-1-α,β-D-desosamine] | 0.7 µg/mL (≈ 1.42 µM) | 0.2 µg/mL (≈ 0.405 µM) | 0.8 µg/mL (≈ 1.62 µM) | 0.4 µg/mL (≈ 0.81 µM) | 
7 | CCCCC/C=C\C/C=C\CCCCCCCC(=O)O[C@H]1[C@@H](OCCCC)O[C@H](C)C[C@@H]1N(C)C [Compound 7, O-linoleoyl-2-O-butyl-1-α-D-desosamine] | 1.1 µg/mL (≈ 2.23 µM) | 1.1 µg/mL (≈ 2.23 µM) |  | 0.15 µg/mL (≈ 0.304 µM) | 
8 | CCCCCCCCCCCCCCCCCCO[C@H]1C(OCCCC)O[C@H](C)C[C@@H]1N(C)C (stereo partly drawn) [Compound 8, O-octadecyl-2-O-butyl-1-α,β-D-desosamine] | < 0.03 µg/mL | 2.2 µg/mL (≈ 4.55 µM) | 8.8 µg/mL (≈ 18.2 µM) | 0.25 µg/mL (≈ 0.517 µM) | 
9 | CCCCCCCCCCCCCCCCCCO[C@H]1[C@@H](OCCCC)O[C@H](C)C[C@@H]1N(C)C [Compound 9, O-octadecyl-2-O-butyl-1-α-D-desosamine] |  | 0.8 µg/mL (≈ 1.65 µM) | 27.5 µg/mL (≈ 56.8 µM) | 0.1 µg/mL (≈ 0.207 µM) | MIC (P37 E⊕ (sensitive); read-out: minimum inhibiting concentration (MIC), P37 E⊕ (sensitive)): 27.5 µg/mL (≈ 56.8 µM)
10 | CCCCCCCCCCCCCCCCCCO[C@H]1[C@H](OCCCC)O[C@H](C)C[C@@H]1N(C)C [Compound 10] | 0.09 µg/mL (≈ 0.186 µM) | 0.04 µg/mL (≈ 0.0827 µM) | 1.56 µg/mL (≈ 3.22 µM) | 3.12 µg/mL (≈ 6.45 µM) | 
11 | CCCCCCCCCCCO[C@H]1C(OCCCCCCCCCC)O[C@H](C)C[C@@H]1N(C)C (some centres unmarked) [Compound 11] | 0.7 µg/mL (≈ 1.49 µM) | 0.7 µg/mL (≈ 1.49 µM) | 0.8 µg/mL (≈ 1.7 µM) | 4 µg/mL (≈ 8.51 µM) | 
12 | CCCCCCCCCCCO[C@H]1[C@@H](OCCCCCCCCCC)O[C@H](C)C[C@@H]1N(C)C [Compound 12] | 1 µg/mL (≈ 2.13 µM) | 0.8 µg/mL (≈ 1.7 µM) | 0.8 µg/mL (≈ 1.7 µM) | 1.8 µg/mL (≈ 3.83 µM) | 
13 | CCCCCCCCCCCO[C@H]1[C@H](OCCCCCCCCCC)O[C@H](C)C[C@@H]1N(C)C [Compound 13] | 0.5 µg/mL (≈ 1.06 µM) | 0.06 µg/mL (≈ 0.128 µM) | 0.02 µg/mL (≈ 0.0426 µM) | 1 µg/mL (≈ 2.13 µM) | 
14 | CCCCCCCCOC1O[C@H](C)C[C@H](N(C)C)[C@H]1OCCCCCCCC (stereo partly drawn) [Compound 14, di-O-octyl-1,2-α,β-D-desosamine] | 0.6 µg/mL (≈ 1.5 µM) | 0.5 µg/mL (≈ 1.25 µM) | 0.1 µg/mL (≈ 0.25 µM) | 0.5 µg/mL (≈ 1.25 µM) | 
15 | CCCCCCCCO[C@H]1O[C@H](C)C[C@H](N(C)C)[C@H]1OCCCCCCCC [Compound 15, di-O-octyl-1,2-α-D-desosamine] | 1 µg/mL (≈ 2.5 µM) | 0.3 µg/mL (≈ 0.751 µM) | 0.4 µg/mL (≈ 1 µM) | 1.8 µg/mL (≈ 4.5 µM) | 
16 | CCCCCCCCO[C@@H]1O[C@H](C)C[C@H](N(C)C)[C@H]1OCCCCCCCC [Compound 16, di-O-octyl-1,2-β-D-desosamine] | 0.3 µg/mL (≈ 0.751 µM) | 1.2 µg/mL (≈ 3 µM) | 0.15 µg/mL (≈ 0.375 µM) | 0.7 µg/mL (≈ 1.75 µM) | 
17 | CCCCCCCCCCCCC(CCCCCCCCCC)CO[C@H]1C(OCCCC)O[C@H](C)C[C@@H]1N(C)C (stereo partly drawn) [Compound 17, O-(2-decyl)-tetradecyl-2-O-butyl-1-α,β-D-desosamine] | 11 µg/mL (≈ 19.4 µM) |  | 6 µg/mL (≈ 10.6 µM) | 12.5 µg/mL (≈ 22 µM) | 
18 | CC[C@H]1OC(=O)[C@H](C)[C@@H](O[C@H]2C[C@@](C)(OC)[C@@H](O)[C@H](C)O2)[C@H](C)[C@@H](O[C@@H]2O[C@H](C)C[C@H](N(C)C)[C@H]2O)[C@](C)(O)C[C@@H](C)C(=O)[C@H](C)[C@@H](O)[C@]1(C)O [erythromycin] |  |  |  |  | zone of inhibition at 50 µg/disc (P37 [3]): 42 mm; IC50 (P37 [4]): 50 µg/mL (≈ 68.1 µM); MIC (P37 E⊕ (sensitive); read-out: MIC, P37 E⊕): 0.78 µg/mL (≈ 1.06 µM); IC50 (P37 E⊕): 5 µg/mL (≈ 6.81 µM); MIC (P37 E⊖ (resistant); read-out: MIC, P37 E⊖): 50 µg/mL (≈ 68.1 µM); IC50 (P37 E⊖): 100 µg/mL (≈ 136 µM); MIC ([2]; ACNESP37, read-out: minimum inhibiting concentration (MIC), P37): 0.78 µg/mL (≈ 1.06 µM)
19 | O-dodecanoyl-2'-erythralosamine [Compound 18] |  |  |  |  | minimum inhibiting concentration (MIC), P37 E⊕ (sensitive) (P37 E⊕ (sensitive); Table I, erythromycin-sensitive): 12.5 µg/mL; minimum inhibiting concentration (MIC), ATCC 12228 [1]: 1.5 µg/mL; minimum inhibiting concentration (MIC), P37 E⊖ (resistant) (P37 E⊖ (resistant); Table I, erythromycin-resistant): 0.4 µg/mL; minimum inhibiting concentration (MIC), P37 ([2]; Table I, P. acnes P37): 0.4 µg/mL
